According to paper PMC7503308, “A Novel Urease Inhibitor of Ruminal Microbiota Screened through Molecular Docking” (International Journal of Molecular Sciences, 2020):

How the values were obtained:
ruminal microbial urease = assay: Urease inhibition assay (Berthelot alkaline phenol-hypochlorite method); assay type: biochemical, rumen bacteria of Chinese Holstein dairy cows
Method: Rumen fluid samples were collected from five Chinese Holstein dairy cows with permanent rumen fistula 3 h after feeding a total mixed ration in the morning. All the operations were conducted in accordance with the protocol approved by the Animal Care and Use Committee for Livestock of the Institute of Animal Sciences, Chinese Academy of Agricultural Sciences (Permit Number: IAS2019-14, Permit Date: 22-03-2019). All rumen fluid samples were filtered by a six layer sterilized medical gauze and mixed in a sterilized beaker before being evenly distributed into different 50 mL tubes and stored in liquid nitrogen. The deforested samples were centrifuged at 12,000× g for 10 min at 4 °C, then the supernatant was removed from the tube. The remaining sediments were resuspended in a HEPES buffer solution (pH 7.5, 50 mM) and then centrifuged at 12,000× g for 10 min at 4 °C. The supernatant was discarded and the remaining rumen bacteria were collected and stored at −80 °C for later urease extraction. All the sample handing processes were conducted on an ice bath. […]
In vitro urease inhibition screening assays were conducted to further narrow the virtual screened compounds for further IC50 determination and kinetic characterization. […] The ammonia that was produced was measured using 50 μL of a phenol reagent containing 10.0 g/L phenol and 50 mg/L of sodium nitroprusside, and 50 μL of alkali reagent containing 5 g/L sodium hydroxide and 8.4 mL/L of sodium hypochlorite solution, at 37 °C for 30 min. The absorbance of each well was measured at 625 nm by a micro plate spectrophotometer (Thermo Scientific Varioskan Flash G-282, Thermo Scientific, Waltham, MA, USA). The endogenous nitrogen (blank) was measured by adding a 70 μL HEPES buffer (pH 7.5, 50 mM) containing no urea and 20 μL methanol solution in the first 30 min of the reaction mixture. The 100% initial activity was determined by adding a 15 μL methanol solution in the first 30 min of the reaction mixture. […]

ruminal microbiota = assay: Chemical degradation rate of compound in ruminal microbial fermentation (UPLC-HRMS); details: 100 μM
Method: The generation fermentation experiments were performed in anaerobic tubes containing 5 mL of an anaerobic medium, and in total, six generations of fermentation were performed. Altogether 54 tubes were prepared with nine tubes for each generation of fermentation. […] For the AHA treated group, the AHA working solution was prepared by diluting 3.76 mg AHA with 10 mL of methanol (5000 μM AHA). […] For the control group, the working solution contained only the solvent (methanol). All the working solutions were filtered by 0.22 μm of a membrane filter (Millipore Express PES Membrane, MILLEX GP). For each group, 100 µL of the working solution was added to each tube to mix with the anaerobic medium. […] Before the inoculation of each tube in each generation with fresh rumen fluid, 100 µL of the anaerobic urea solution was extracted from the anaerobic bottle using a syringe and filtered through 0.22 μm membrane filters, and then injected to the anaerobic tube to make the urea concentration at 16.65 mM in the tube. […] The NH4-N and Urea-N concentration was measured by the Berthelot alkaline phenol-hypochlorite method and the diacetyl monoxime method kit (Nanjing Jiancheng Co., Nanjing, China) following the manufacturer’s protocol. […]

COc1ccc(-c2ccc(CCC(=O)O)n2NC(N)=O)cc1 [6238-0047, 3-[1-[(aminocarbonyl)amino]-5-(4-methoxyphenyl)-1H-pyrrol-2-yl] propanoic acid]
Percentage of inhibition against ruminal microbial urease (ruminal microbial urease; 0.5 mM compound, compared with other candidate compounds): superior ruminal microbial urease inhibition capacity
IC50 (ruminal microbial urease; ruminal microbial urease, 37 °C, 30 min, pH 7.5): 65.9 µM
24 h degradation rate (ruminal microbiota; first-generation ruminal microbial culture): 3.32%
24 h degradation rate (ruminal microbiota; sixth generation ruminal microbial culture): 16.00%
